Experimental data published in patent US8741897B2, “Glucocorticoid mimetics, methods of making them, pharmaceutical compositions and uses thereof” (Boehringer Ingelheim Pharmaceuticals Inc., priority 2003, dated 2014).

The molecules below were run on glucocorticoid receptor function (assay: one or more of the above assays (GR binding and glucocorticoid receptor cell assays: aromatase, IL-6, TAT, MMTV-Luc, IL-8, ICAM-Luc)). Settings: assay not specified per compound.
Format: cell-based
Procedure: B. Glucocorticoid Receptor Cell Assays
1. Induction of Aromatase in Fibroblasts (Cell Assay for Transactivation)
Dexamethasone, a synthetic ligand to the glucocorticoid receptor (GR), induces expression of aromatase in human foreskin fibroblast cells. The activity of aromatase is measured by the conversion of testosterone to estradiol in culture media.
On the day of the experiment, the media in the wells is replaced with fresh media. Cells are treated with test compounds to final concentrations of 10^−5 M to 10^−8 M, and testosterone to a final concentration of 300 ng/mL. Each well has a total volume of 100 μL. Samples are made in duplicates. Control wells include: (a) wells that receive testosterone only, and (b) wells that receive testosterone plus 2 μM of dexamethasone to provide maximum induction of aromatase. Plates are incubated at 37° C. overnight (15 to 18 hours), and supernatants are harvested at the end of incubation. […] The amount of estradiol is inversely proportional to the ELISA signals in each well. The extent of aromatase induction by test compounds is expressed as a relative percentage to dexamethasone. EC50 values of test compounds are derived by non-linear curve fitting.
2. Inhibition of IL-6 Production in Fibroblasts (Cell Assay for Transrepression)
Human foreskin fibroblast cells produce IL-6 in response to stimulation by proinflammatory cytokine IL-1.
On the next day, media in the wells is replaced with fresh media. Cells are treated with IL-1 (rhIL-1α, R&D Systems Cat. No. 200-LA) to a final concentration of 1 ng/mL, and with test compounds to final concentrations of 10^−5 M to 10^−8 M, in a total volume of 200 μL per well. Samples are done in duplicates. […] Positive control wells receive IL-1 only and represent maximum (or 100%) amount of IL-6 production. Plates are incubated at 37° C. overnight (15 to 18 hours), and supernatants are harvested at the end of incubation. IL-6 levels in the supernatants are determined by the ELISA kits for IL-6 (MedSystems Diagnostics GmbH, Vienna, Austria, Cat. No. BMS213TEN) according to manufacture's instructions. The extent of inhibition of IL-6 by test compounds is expressed in percentage relative to positive controls. IC50 values of test compounds are derived by non-linear curve fitting.
Evaluation of agonist or antagonist activity of compounds binding to the glucocorticoid receptor may be determined by any of the assays.
3. Modulation of Tyrosine Aminotransferase (TAT) Induction in Rat Hepatoma Cells
Testing of compounds for agonist or antagonist activity in induction of tyrosine aminotransferase (TAT) in rat hepatoma cells.
H4-II-E-C3 cells were incubated overnight in 96 well plates (20,000 cells/100 μL/well) in MEM medium containing 10% heat inactivated FBS and 1% nonessential amino acids. On the next day, cells were stimulated with the indicated concentrations of dexamethasone or test compound (dissolved in DMSO, final DMSO concentration 0.2%) for 18 hours. Control cells were treated with 0.2% DMSO. After 18 hours, the cells were lysed in a buffer containing 0.1% Triton X-100 and the TAT activity was measured in a photometric assay using tyrosine and alpha-ketoglutarate as substrates.
For measuring antagonist activity, the hepatoma cells were pre-stimulated by addition of dexamethasone (concentration ranges from 3×10^−9 M to 3×10^−8 M) shortly before the test compound was applied to the cells.
4. Modulation of MMTV-Luc Induction in HeLa Cells
Testing of compounds for agonist or antagonist activity in stimulation of MMTV-(mouse mammary tumor virus) promoter in HeLa cells.
Cells were cultured overnight in DMEM medium without phenol red, supplemented with 3% CCS (charcoal treated calf serum) and then transferred to 96 well plates (15,000 cells/100 μL/well).

| SMILES | activity as agonists of the glucocorticoid receptor function in one or more of the above assays |
| --- | --- |
| Cc1c(CC(O)(CC(C)(C)c2cc(-c3cccnc3)ccc2O)C(F)(F)F)[nH]c2cnccc12 (stereo not drawn) [4-Pyridin-3-yl-2-[4,4,4-trifluoro-3-hydroxy-1,1-dimethyl-3-(3-methyl-1H-pyrrolo[2,3-c]pyridin-2-ylmethyl)butyl]phenol] | potent agonists |
| CC(C)(CC(O)(Cc1cc2cnccc2[nH]1)C(F)F)c1cc(Cl)cc2c1OCC2 (stereo not drawn) [4-(5-Chloro-2,3-dihydrobenzofuran-7-yl)-1,1-difluoro-4-methyl-2-(1H-pyrrolo[3,2-c]pyridin-2-ylmethyl)pentan-2-ol] | agonists |
| COc1ccc(F)cc1C(C)(C)CC(O)(Cc1cc2ccncc2[nH]1)C(C)(C)C (stereo not drawn) [5-(5-Fluoro-2-methoxyphenyl)-2,2,5-trimethyl-3-(1H-pyrrolo[2,3-c]pyridin-2-ylmethyl)hexan-3-ol] | agonists |
| CSc1cc2c(c(C(C)(C)CC(O)(Cn3ccc4ncccc43)C(F)(F)F)c1)OCC2 (stereo not drawn) [1,1,1-Trifluoro-4-methyl-4-(5-methylsulfanyl-2,3-dihydrobenzofuran-7-yl)-2-pyrrolo[3,2-b]pyridin-1-ylmethylpentan-2-ol] | potent agonists |
| Cc1ccc(F)cc1C(C)(C)CC(O)(Cc1cc2cnccc2[nH]1)C(C)C (stereo not drawn) [5-(5-Fluoro-2-methylphenyl)-2,5-dimethyl-3-(1H-pyrrolo[3,2-c]pyridin-2-ylmethyl)hexan-3-ol] | agonists |
| COc1ccc(-c2ccccc2C#N)cc1C(C)(C)CC(O)(Cc1cc2c(C)cncc2[nH]1)C(F)(F)F (stereo not drawn) [4′-Methoxy-3′-[4,4,4-trifluoro-3-hydroxy-1,1-dimethyl-3-(4-methyl-1H-pyrrolo[2,3-c]pyridin-2-ylmethyl)butyl]biphenyl-2-carbonitrile] | potent agonists |
| Cc1nccc2[nH]c(CC(O)(CC(C)(C)c3cc(-c4cccnc4)ccc3O)C(F)(F)F)cc12 (stereo not drawn) [4-Pyridin-3-yl-2-[4,4,4-trifluoro-3-hydroxy-1,1-dimethyl-3-(4-methyl-1H-pyrrolo[3,2-c]pyridin-2-ylmethyl)butyl]phenol] | potent agonists |
| CC(C)(CC(O)(Cc1cc2cc(N3CCOCC3)ncc2[nH]1)C(F)(F)F)c1ccccc1 (stereo not drawn) [1,1,1-Trifluoro-4-methyl-2-(5-morpholin-4-yl-1H-pyrrolo[2,3-c]pyridin-2-ylmethyl)-4-phenylpentan-2-ol] | potent agonists |
| COc1ccc(F)cc1C(C)(C)CC(O)(Cc1cc2nc(N3CCCC3)ncc2[nH]1)C(F)(F)F (stereo not drawn) [1,1,1-Trifluoro-4-(5-fluoro-2-methoxyphenyl)-4-methyl-2-(2-pyrrolidin-1-yl-5H-pyrrolo[3,2-d]pyrimidin-6-ylmethyl)pentan-2-ol] | potent agonists |
| COc1ccc(-c2cccnc2)cc1C(C)(C)CC(O)(Cc1cc2c(C)cncc2[nH]1)C(F)(F)F (stereo not drawn) [1,1,1-Trifluoro-4-(2-methoxy-5-pyridin-3-ylphenyl)-4-methyl-2-(4-methyl-1H-pyrrolo[2,3-c]pyridin-2-ylmethyl)pentan-2-ol] | potent agonists |
| COc1ccc(-c2ccccc2)cc1C(C)(C)CC(O)(Cc1cc2c(C)nccc2[nH]1)C(F)(F)F (stereo not drawn) [1,1,1-Trifluoro-4-(4-methoxybiphenyl-3-yl)-4-methyl-2-(4-methyl-1H-pyrrolo[3,2-c]pyridin-2-ylmethyl)pentan-2-ol] | potent agonists |
| COc1cc(F)ccc1C(C)(C)CC(O)(Cc1[nH]c2cnccc2c1C)C(F)(F)F (stereo not drawn) [1,1,1-Trifluoro-4-(4-fluoro-2-methoxyphenyl)-4-methyl-2-(3-methyl-1H-pyrrolo[2,3-c]pyridin-2-ylmethyl)pentan-2-ol] | potent agonists |
| COc1ccc(-c2ccsc2)cc1C(C)(C)CC(O)(Cc1cc2ccncc2[nH]1)C(F)(F)F (stereo not drawn) [1,1,1-Trifluoro-4-(2-methoxy-5-thiophen-3-ylphenyl)-4-methyl-2-(1H-pyrrolo[2,3-c]pyridin-2-ylmethyl)pentan-2-ol] | potent agonists |
| COc1ccc(Br)cc1C(C)(C)CC(O)(Cc1cc2ccncc2[nH]1)C(F)(F)F (stereo not drawn) [4-(5-Bromo-2-methoxyphenyl)-1,1,1-trifluoro-4-methyl-2-(1H-pyrrolo[2,3-c]pyridin-2-ylmethyl)pentan-2-ol] | potent agonists |
| COc1ccc(F)cc1C(C)(C)CC(O)(Cc1cc2ccncc2[nH]1)C(C)C (stereo not drawn) [5-(5-Fluoro-2-methoxyphenyl)-2,5-dimethyl-3-(1H-pyrrolo[2,3-c]pyridin-2-ylmethyl)hexan-3-ol] | agonists |
| Cc1ccc(F)cc1C(C)(C)CC(O)(Cc1cc2cc(-c3ccccc3)nnc2[nH]1)C(F)(F)F (stereo not drawn) | potent agonists |
| Cc1ccc(F)cc1C(C)(C)CC(O)(Cc1cc2cc(OS(=O)(=O)C(F)(F)F)ncc2[nH]1)C(F)(F)F (stereo not drawn) [Trifluoromethanesulfonic acid 2-[4-(5-fluoro-2-methylphenyl)-2-hydroxy-4-methyl-2-trifluoromethylpentyl]-1H-pyrrolo[2,3-c]pyridin-5-yl ester] | potent agonists |
| Cc1ccc(F)cc1C(C)(C)CC(O)(Cc1cc2ccncc2[nH]1)C1CC1 (stereo not drawn) [2-Cyclopropyl-4-(5-fluoro-2-methylphenyl)-4-methyl-1-(1H-pyrrolo[2,3-c]pyridin-2-yl)pentan-2-ol] | agonists |
| COc1ccc(C)cc1C(C)(C)CC(O)(Cc1cc2nc(N3CCCC3)ncc2[nH]1)C(F)(F)F (stereo not drawn) | potent agonists |
| CC(C)(CC(O)(Cc1cc2nc(Cl)ncc2[nH]1)C(F)(F)F)c1cc(Cl)cc2c1OCC2 (stereo not drawn) [4-(5-Chloro-2,3-dihydrobenzofuran-7-yl)-2-(2-chloro-5H-pyrrolo[3,2-d]pyrimidin-6-ylmethyl)-1,1,1-trifluoro-4-methylpentan-2-ol] | potent agonists |
| Cc1cccc2[nH]c(CC(O)(CC(C)(C)c3cc(S(C)(=O)=O)cc4c3OCC4)C(F)(F)F)cc12 (stereo not drawn) [1,1,1-Trifluoro-4-(5-methanesulfonyl-2,3-dihydrobenzofuran-7-yl)-4-methyl-2-(4-methyl-1H-indol-2-ylmethyl)pentan-2-ol] | potent agonists |
| CC(C)(CC(O)(Cc1cc2cc(Cl)ncc2[nH]1)C(F)(F)F)c1cc(Br)ccc1O (stereo not drawn) [4-Bromo-2-[3-(5-chloro-1H-pyrrolo[2,3-c]pyridin-2-ylmethyl)-4,4,4-trifluoro-3-hydroxy-1,1-dimethylbutyl]phenol] | potent agonists |
| Cc1cc2[nH]c(CC(O)(CC(C)(C)c3cc(Cl)cc4c3OCC4)C(F)F)cc2cn1 (stereo not drawn) [4-(5-Chloro-2,3-dihydrobenzofuran-7-yl)-1,1-difluoro-4-methyl-2-(6-methyl-1H-pyrrolo[3,2-c]pyridin-2-ylmethyl)pentan-2-ol] | agonists |
| CC(C)(CC(O)(Cc1cc2cnccc2[nH]1)C(F)(F)F)c1cccc(-c2cncnc2)c1 (stereo not drawn) [1,1,1-Trifluoro-4-methyl-4-(3-pyrimidin-5-ylphenyl)-2-(1H-pyrrolo[3,2-c]pyridin-2-ylmethyl)pentan-2-ol] | potent agonists |
